Reference: patent US9913858B2, “Prevention and treatment of toxicosis” (priority 2013, dated 2018)

Columns and labels:
[1] = Serum and cerebrospinal fluid bromide concentrations in the sheep trial; format: in vivo; conditions: intoxicated sheep
Experimental: (§1) Venous blood samples collected for biochemical analysis and haematocrit (PCV), and urine for USG, at three specific time points during the experiment for all animals: 1) on entry to the trial; 2) on date of entry to the end of trial protocol and, 3) on day of necropsy.
A full clinical examination was performed prior to euthanasia. At euthanasia, 100 I.U. heparin (Provet Riverina Pty Ltd) was injected into the jugular vein, followed shortly by Lethabarb (20 mL/40 kg LW). Immediately after euthanasia, the ventral articulation of C1 was exposed and cerebrospinal fluid (CSF) collected using a 23 g needle. The head was then removed and subjected to perfusion fixation. Briefly, the carotid arteries were exposed and a small catheter inserted and ligated to secure the perfusion lines. Two liters of 0.1% phosphate buffered saline (PBS) containing 3000 I.U of heparin/L was then slowly perfused via the ligated vessels at a pressure of 90 mm Hg using a Microgon peristaltic Pump (Microgon, Laguna Hills, Calif.). Once complete this was replaced with 4% paraformaldehyde (Sigma-Alrich) in 0.1% PBS and a further two liters allowed to perfuse slowly through the tissues of the head. Once complete, catheters were removed and the whole head placed at 4° C. overnight to complete fixation. Twenty-four hours post perfusion fixation the brain was removed from the skull and placed in 10% formal saline for storage until dissection for processing to wax sections.
Absorbance was measured with a spectrophotometer at 440 nm. […] The lower limit of quantification (LOQ) was 25 μg/mL.

[2] = PK studies performed prior to this trial (Combs and Edwards, personal communication); cited from earlier work
lolitrem B intoxication = assay: KBr pre-treatment in rodent model of PRGT (lolitrem B injection), tremor analysis and novel arena test; format: in vivo, mice
Experimental: Mice were administered 2500 ppm KBr in their drinking water for 7 days prior to injection with lolitrem B (2 mg/kg IP).

sheep = assay: Clinical pathology of serum and urine; format: in vivo; conditions: toxin only and acute treatment groups, not outside normal ranges
From the text: as §1, with “necropsy. Additional venous blood samples were occasionally collected for analysis of serum bromide (see below).” for “necropsy.”
For venous sampling, blood was collected from either the right or left jugular vein as determined by convenience and sampler preference. Needle hubs and sterile, single use 21 G needles and 10 mL Vacutainer® tubes were used for collection. Two Vacutainer® tube types were used for each animal: one containing a clot activator for serum collection, the other contained ethylenediamine tetra-acetic acid (EDTA) to prevent clotting. Tubes were inverted repetitively immediately after collection prior to storage on ice for transport to the laboratory. […]
Urine samples were collected by attachment of a clean plastic bag using SuperGlue™ to the fleece on either side of the preputial opening. […] Urine specific gravity (USG) was determined using a refractometer (VQ5600 refractometer, VetQuip, Australia).
Haematological and biochemical analysis was performed by the laboratory within 60 minutes of blood collection. Haematological analytes were measured using a CellDyn 3700 Haematology System (Abbott Diagnostics, Abbott Park, Ill., USA). […]

[3] = 2500 ppm KBr in drinking water 7 days prior to lolitrem B 2 mg/kg IP, one hour post injection
[4] = 2500 ppm KBr in drinking water 7 days, 3.5 hours post lolitrem B 2 mg/kg IP

Structure (SMILES) | mean serum bromide concentration ([1]; 6 hours after oral 300 mg/kg potassium bromide, n=3) [µg/mL] | final mean serum bromide concentration ([1]; 48 hours after oral 300 mg/kg potassium bromide, n=6) [µg/mL] | time of peak serum bromide levels post administration [2] [h] | peak tremor frequency (lolitrem B intoxication; [3]) | tremor to movement ratio (lolitrem B intoxication; [3]) | movement in novel arena test (lolitrem B intoxication; [4]) | time freezing in novel arena test (lolitrem B intoxication; [4]) | Renal function (creatinine, urea) (sheep)
[Br-].[K+] [potassium bromide] | 899.43 | 804.34 | 6 | reduced | reduced | increased | reduce | 
CC(C)=C[C@H]1O[C@H]2[C@H]3O[C@@]34[C@H](CC[C@@]3(C)[C@@]4(O)CC[C@H]4Cc5c([nH]c6ccc7c(c56)C[C@@H]5[C@@H](C7=O)C(C)(C)OC5(C)C)[C@@]43C)O[C@@H]2C(C)(C)O1 [lolitrem B] |  |  |  |  |  |  |  | mildly compromised
